Measurements taken from patent publication US10806794B2, “Protease inhibitors having enhanced features” (priority 2008, dated 2020).
Where two headings read alike, the source gives them in different places.

Assays:
Caco-2 cells = experiment: in vitro
Procedure: Absorption properties of various compounds were measured using bi-directional permeability assays in Caco-2 cells. […] The efflux ratio is calculated as the ratio of the Papp(B→A)/Papp(A→B).

PBMCs [1] = experiment: PBMC macromolecule synthesis (tritiated precursor incorporation); type: cell-based, human; details: for Thymidine Incorporation (PBMC) TC50: DNA synthesis; for Uridine Incorporation (PBMC) TC50: RNA synthesis; for Leucine Incorporation (PBMC) TC50: protein synthesis
Procedure: Cellular macromolecule synthesis was evaluated using tritiated precursor incorporation assays. PBMCs (5×10^4 cells/well) were cultured in the presence or absence of test compound for 7 days at 37 C, 5% CO2 in a 96-well microtiter plate. On day 6 of the incubation, 1 uCi of [methyl-3H]-thymidine for DNA synthesis, [5-3H]-uridine for RNA synthesis, or [3,4,5-3H]-leucine for protein synthesis was added to compound-treated cells, and the plate was further incubated for 16 hours. The cells were transferred to a glass fiber filtermat using an Inotech cell harvester. The filtermats were washed with distilled water then sealed in a bag with scintillation fluid. Incorporated radioactivity was measured using a Wallac scintillation counter.

in vitro = in vitro ADME; details: dog, microsomes
From the text: Metabolic stability of test compounds was studied in dog liver microsomes.

beagle dog hepatocytes = experiment: Metabolic stability in beagle dog hepatocytes; type: in vitro ADME; details: 0.1 uM
human monocytes = experiment: Toxicity in human monocytes in the absence of viral infection; details: monocyte/macrophages, absence of viral infection
Procedure: Fresh human monocytes were infected with the BaL strain of HIV-1 in the presence of test compounds. After seven days in culture, HIV-1 replication was evaluated by measurement of HIV-1 viral capsid protein (p24) in the tissue culture supernatant (Table 7). […] A TI was calculated as described above using TC50 values derived from cell toxicity data in response to test compounds in the absence of viral infection.

[2] = test system: Sprague-Dawley rat hepatocytes; experiment: Metabolic stability in Sprague-Dawley rat hepatocytes; type: in vitro ADME; details: 0.1 uM
HIV-1Ba-L = experiment: Anti-HIV-1 activity in monocyte-derived dendritic cells (reverse transcriptase activity); type: cell-based
Procedure: Freshly separated human PBMCs from a single donor were suspended in DPBS at 4×10^6 cells/mL and incubated in a 75 cm^2 cell culture flask for 90 minutes at 37° C., 5% CO2. Non-adherent cells were removed by washing with DPBS. Differentiation to dendritic cells was induced by 7 day incubation in RPMI 1640 medium supplemented with 10% fetal bovine serum, 2 mmol/L L-glutamine, 25 mM HEPES, 100 Units/mL penicllin, 10 μg/mL streptomycin, 50 ng/mL recombinant human granulocyte-macrophage-colony stimulating factor (GM-CSF), and 50 ng/mL recombinant human Interleukin (IL)-4 at 37° C., 5% CO2. The cells were further incubated for two days in the same cytokine cocktail supplemented with 10 ng/mL lipopolysaccharide (LPS). The monocyte-derived dendritic cells were then suspended at 10×10^6 cells/mL in complete medium (RPMI 1640 medium supplemented with 10% fetal bovine serum, 2 mmol/L L-glutamine, 25 mM HEPES, 100 Units/mL penicllin, 10 μg/mL streptomycin) and infected for 2 h at 37 C, 5% CO2 with HIV-1Ba-L at MOI=50-150 TCID50. […] Compound diluted in complete medium was added to cells. After seven days in culture, HIV-1 replication was quantified by measuring HIV-1 reverse transcriptase activity in cell-free supernatants using a standard radioactive tritiated thymidine triphosphate (TTP) polymerization incorporation assay. For each reaction, 1 μL of TTP (1 Ci/mL) was combined with 4 μL of dH2O, 2.5 μL of poly rA and oligo dT (0.5 mg/mL and 1.7 Units/mL, respectively), and 2.5 μL reaction buffer (125 μL 1 mol/L EGTA, 125 μL dH2O, 125 μL 20% Triton X-100, 50 μL 1 mol/L Tris, pH 7.4, 50 μL 1 mol/L DTT, 40 μL 1 mol/L MgCl2), then 10 μL of the resulting mixture was combined with 15 µL of virus-containing supernatant in a round-bottom microtiter plate and the plate incubated at 37° C. in a humidified incubator for 90 minutes. Following incubation, 10 μL of the reaction volume was spotted onto a DEAD filter mat, then washed 5×5 min with 5% sodium phosphate buffer, 2×1 minute in distilled water, 2×1 minute in 70% ethanol, then air dried. The filter mat was incubated with Opti-Fluor O scintillation fluid, and radioactivity quantified using a Wallac 1450 Microbeta Trilux liquid scintillation counter.

PBMCs [3] = experiment: Toxicity in PBMCs cultured without virus (XTT); details: seven days, absence of virus, XTT
Procedure: Fresh human peripheral blood mononuclear cells (PBMCs) obtained from a commercial source were purified following centrifugation using a Ficoll-Hypaque density gradient. Viable cells were induced to proliferate in the presence of PHA-P and recombinant human IL-2 for 72 hours. […] Cell supernatant containing HIV-1 viral was incubated for 90 minutes at 37° C. with a reaction mixture containing EGTA, Triton X-100, Tris (pH 7.4), DTT, MgCl2, poly rA, oligo dT, and tritiated thymidine triphosphate (TTP). Incorporation of TTP into DNA was monitored by spotting the reaction mixture onto a DEAE filter mat, followed by washes with 5% phosphate buffer, distilled water, and 70% ethanol, and subsequent drying of the mat. […] TI was calculated as TC50/EC50.

[4] = test system: monocyte-derived dendritic cells; experiment: Cytotoxicity in monocyte-derived dendritic cells (XTT); type: cell-based, human
From the text: Cell viability is directly proportional to the amount of reduced XTT product formed.

CYP3A4 = CYP3A4 (Homo sapiens (Human), UniProt P08684); experiment: CYP450 inhibition in human liver microsomes: CYP3A4;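 also: incubation at 37 °C started by adding 1 mM NADPH, with formation of the probe metabolite measured via LC-MS/MS or fluorescent detection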
[5] = dendritic cells, first determination, read-out: EC50 First
[6] = dendritic cells, mean of three, read-out: Mean EC50
[7] = dendritic cells, second determination, read-out: EC50 Second
[8] = dendritic cells, third determination, read-out: EC50 Third
[9] = read-out: CYP3A4 IC50 Midazolam, probe substrate midazolam
[10] = read-out: CYP3A4 IC50 Testosterone, probe substrate testosterone

Chain of CYP3A4 (P08684 whole entry): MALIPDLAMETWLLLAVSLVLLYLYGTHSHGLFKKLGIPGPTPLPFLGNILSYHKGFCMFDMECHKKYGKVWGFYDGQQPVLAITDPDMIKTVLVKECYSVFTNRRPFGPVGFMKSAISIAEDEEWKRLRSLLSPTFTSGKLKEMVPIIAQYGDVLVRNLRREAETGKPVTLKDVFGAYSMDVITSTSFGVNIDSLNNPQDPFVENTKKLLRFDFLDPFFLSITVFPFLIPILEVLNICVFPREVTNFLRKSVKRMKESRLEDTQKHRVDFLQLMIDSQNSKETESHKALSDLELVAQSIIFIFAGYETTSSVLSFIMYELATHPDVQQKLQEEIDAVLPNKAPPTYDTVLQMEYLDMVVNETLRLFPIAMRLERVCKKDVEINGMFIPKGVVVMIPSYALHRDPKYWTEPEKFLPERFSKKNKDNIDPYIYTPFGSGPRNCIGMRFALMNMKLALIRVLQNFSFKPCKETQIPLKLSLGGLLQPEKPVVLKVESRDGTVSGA

Structure (SMILES) | Thymidine Incorporation (PBMC) TC50 (PBMCs [1]) | Uridine Incorporation (PBMC) TC50 (PBMCs [1]) | Leucine Incorporation (PBMC) TC50 (PBMCs [1]) | CLint ± SEM (beagle dog hepatocytes) | t1/2 (beagle dog hepatocytes) | TC50 (human monocytes) | CLint ± SEM [2] | t1/2 [2] | EC50 (HIV-1Ba-L; [5]) | EC50 (HIV-1Ba-L; [6]) | EC50 (HIV-1Ba-L; [7]) | EC50 (HIV-1Ba-L; [8]) | PBMC TC50 ± SD (PBMCs [3]) | TC50 [4] | IC50 (CYP3A4; [9]) | IC50 (CYP3A4; [10]) | other results
COC(=O)N[C@H](C(=O)N[C@@H](Cc1ccccc1)[C@@H](O)CN(Cc1ccc(-c2ccccn2)cc1)NC(=O)[C@@H](NC(=O)OC)C(C)(C)C)C(C)(C)C [Atazanavir, reference compound] | 81.1 µM | 87.2 µM | 94.7 µM | – | – | – | – | – | – | – | – | – | – | – | – | – | A→B, ×10^−6 (Caco-2 cells; human, Caco-2): 2.04 cm/s; half-life (in vitro): 51.8 min; microsomal CLint (in vitro): 26.8 µL/min/mg
COCCOCCOCCOCCOCCOc1ccc(C[C@H](NC(=O)O[C@H]2CO[C@H]3OCC[C@H]32)C(O)CN(CC(C)C)S(=O)(=O)c2ccc(N)cc2)cc1 (stereo partly shown) [mPEG5-O-Darunavir] | >400.0 µM | >400.0 µM | >400.0 µM | 4.93 ± 0.000253 μL/min/10^6 cells | 281 min | >200.0 µM | 37.0 ± 0.00425 μL/min/10^6 cells | 37.5 min | 0.06 µM | 0.0567 µM | 0.06 µM | 0.05 µM | >200 µM | >200 µM | > 2.5 µM | > 25 µM | –
COCCOCCOCCOc1ccc(C[C@H](NC(=O)O[C@H]2CO[C@H]3OCC[C@H]32)C(O)CN(CC(C)C)S(=O)(=O)c2ccc(N)cc2)cc1 (stereo partly shown) [mPEG3-O-Darunavir] | 109.6 µM | 139.4 µM | 218.9 µM | 15.5 ± 0.000361 μL/min/10^6 cells | 89.5 min | >200.0 µM | 28.4 ± 0.00359 μL/min/10^6 cells | 48.8 min | 0.00017 µM | 0.0059 µM | 0.00084 µM | 0.0167 µM | >200 µM | >200 µM | 2.59 µM | 4.9 µM | Efflux ratio (B→A/A→B) (Caco-2 cells; Caco-2 monolayers): 32; A→B, ×10^−6 (Caco-2 cells; Caco-2 monolayers, apical to basolateral): 0.51 cm/s
CC(C)CN(C[C@@H](O)[C@H](Cc1ccccc1)NC(=O)O[C@H]1CO[C@H]2OCC[C@H]21)S(=O)(=O)c1ccc(N)cc1 [Darunavir, reference compound] | 184.3 µM | 189.3 µM | 258.3 µM | – | – | >200.0 µM | – | – | – | – | – | – | – | >200 µM | – | – | EC50 (HIV-1Ba-L; Human immunodeficiency virus 1, Dendritic cell, read-out: EC50 First, dendritic cells, first determination): 0.002 µM; EC50 (HIV-1Ba-L; Human immunodeficiency virus 1, Dendritic cell, read-out: EC50 Second, dendritic cells, second determination): 0.003 µM; EC50 (HIV-1Ba-L; Human immunodeficiency virus 1, Dendritic cell, read-out: EC50 Third, dendritic cells, third determination): 0.003 µM; EC50 (HIV-1Ba-L; Human immunodeficiency virus 1, Dendritic cell, read-out: Mean EC50, dendritic cells, mean of three): 0.0027 µM
